In assay [1] the test system is loss of the righting reflex in rats. Put plainly: Test of loss of the righting reflex in rats, induction (agonistic effect). Format: in vivo, male Wistar rats. The settings on record: for ED50: Rattus norvegicus, sc, 0.5 h, read-out: Induction of the loss of righting reflex ED50; for induction of a loss of the reorienting reflex (in words): rats. The method, then:
(§1) Animals and environment The animals used are male Wistar rats (IFFA CREDO). They weigh between 200 and 250 g at the time of the experiment. The rats live in an animal house, in cages, four to a cage, with free access to food and drinking water, for one week before being studied. 24 hours before the experiment, the rats are deprived of food. The rats are transferred into the laboratory a few hours before the experiment. The animal house and the laboratory are climatically controlled at a temperature of 21 1° C. and a hygrometry of 55 5%. The lighting cycle is 12 h/12 h with the light switched on from 7.0 a.m. to 7.0 p.m. The rats are only experimented on once.
(§2) The compounds are injected subcutaneously into the rats which are placed in individual cages. 30 minutes after the injection the effect of these products on the fighting reflex is observed and a score is attributed. Immediately after, the rats receive an intraperitoneal injection of xylazine at a dose of 40 mg/kg. 30 minutes after the injection of xylazine (=60 minutes after the injection of the compounds to be tested), a new righting reflex score is attributed. In order to evaluate the righting reflex, the rats are placed gently on their backs and then released. A score of 0 is attributed to an immediate and complete righting, a score of 1 to a righting without recovery of a normal position, a score of 2 to a righting attempt but in which the rat remains stretched out on its back and a score of 3 to a complete loss of the reorienting reflex.
In order to evaluate the effect of the compounds tested on the loss of the righting reflex, a score of 1 or more is considered as an agonistic effect. The percentage of animals which have a score of 1 or more is calculated per dose, as is the ED50 (=dose at which 50% of the animals show an agonistic effect).
(§3) The products are dissolved in distilled water, or distilled water with a few drops of lactic acid in the case of solubilization difficulties. The pH of the solutions is then brought to 5 using sodium hydroxide solution. All the products are administered in a volume of 10 ml/kg.

Assay [2] concerns loss of righting reflex induced by xylazine in rats. Kind of assay: Antagonism of the loss of righting reflex induced by xylazine in rats. In kind it is in vivo, male Wistar rats. The settings on record: Rattus norvegicus, sc, 1 h, read-out: Antagonism of the loss of righting reflex induced by xylazine ED50. The method, then:
as §1, §2
In order to evaluate the effect of the compounds tested on the loss of the fighting reflex induced by xylazine, a score of 2 or less is considered as an antagonistic effect. The percentage of animals which have a score of 2 or less is calculated per dose, as is the ED50 (=dose at which 50% of the animals show an antagonistic effect). The ED50 are calculated according to Litchfield and Wilcoxon.
as §3

For another assay, the system named is dog femoral arteries. Put plainly: Contraction of isolated dog femoral arteries. The conditions noted are these: Canis lupus familiaris. The method, then:
(§4) The technique used is based on that described by Fowler et al. (J. Pharmacol. Exp. Ther., 229, 712-718, 1984). Male or female mongrel dogs of approximately 15-25 kg were used as organ sources. The animals are anesthetized with pentobarbital (30 mg/kg intravenously). The legs are incized and the blood vessels removed. They are placed in Krebs-Ringer liquid (118 mM NaCl; 25 mM NaHCO3; 10 mM Glucose; 4.7 mM KCl; 1.25 mM CaCl2; 1.19 mM MgSO4; 1.14 mM KH2 PO4) at room temperature and under a sparge of carbogen (95% O2, 5% CO2). These blood vessels are then carefully freed of their fat and then cut into rings 2 mm wide and mounted under a base tension of 4 g (femoral arteries) or 1 g (saphena veins) in tanks thermostated at 37° C. containing Krebs-Ringer liquid and constantly sparged with carbogen. A lower hook constitutes the fixed point, whereas the upper hook is connected to an isometric force sensor. The variations in tension are digitized, stored on disk and processed by an information technology system. After mounting, the organs are left to rest for 90 minutes, with rinses being carried out every 30 min. After readjustment of the base tension, a contraction is induced by a single dose of KCl (100 mM). After stabilization, washing and returning to the base line, a contraction is provoqued by a single dose of phenylephrine (submaximal concentration) in order to regulate the following contractions. After washing and returning to the baseline, an effect/concentration curve is produced by addition of cumulative doses of agonist (the space between the doses is a semi-log). This experiment makes it possible to calculate the 50% effective concentration (EC50) in the following way: the tension values are first of all converted to percentages relative to the maximum effect induced by 100 mM of KCl. This EC50 is determined by non-linear regression by the SIMPLEX method (M. S. Caceci, Byte, 340-362, 1984), calculated according to the mass action law model of L. Michaelis and M. L. Menten (Biochem. Zeitschrift, 49, 333-369, 1913).
(§5) E=(Emax*C^n)(EC^n +C^n) with E=effect; Emax=maximum effect; C=concentration; EC=EC50; n=Hill number
(§6) The products of the invention contract dog arteries and veins. The maximum for these contractions approaches that obtained with KCl.

The test system of a further assay is saphena veins. Kind of assay: Contraction of isolated dog saphena veins. The settings on record: Canis lupus familiaris. The method, then:
as §4, §5, §6

Assay [3] concerns synthetic activity of noradrenaline in rat hippocampus. Kind of assay: Effect of α2-adrenergic ligands on the synthetic activity of noradrenaline in rat hippocampus (L-DOPA accumulation). In kind it is in vivo, male Wistar rats. The settings on record: 60 minutes, n = 4. As for the experimental part: 200-220 g male Wistar rats Iffa Credo, Illskischen, France) are individually installed in cages with free access to food and drinking water. The laboratory temperature is 21 1° C. and the percent humidity is 60 5%. The day/night cycle is 12 hours (light switched on in the morning at 7.30).
The effects of the molecules on the rate of regeneration of noradrenaline is determined 60 minutes after their administration via the subcutaneous route. […] The animals are then decapitated, their brain is removed and the hippocampus is dissected. The hippocampus is subsequently homogenized in 500 1 of 0.1M HClO4 containing 0.5% of Na2 S2 O5 and 0.5% of disodium EDTA and centrifuged at 15000 g for 15 minutes at 4° C. In order to measure the amounts of L-dihydroxyphenylalanine (L-DOPA), the precursor of noradrenaline, present, the supernatants are diluted 20 times in the chromatography mobile phase and 100 1 are analyzed by high performance liquid chromatography with electrochemical detection (Waters M460 detector, potential of the working electrode:850 mV). The column (Hypersil ODS 5 m, C18, 150 4.6 mm, Spectra Physics) is thermostatted at 25° C. […] The flow rate is 1 ml/min. The amounts of L-DOPA are determined relative to an external calibration and are compared with the amount of protein present in the hippocampi. The proteins are quantified according to the method of Smith et at. […] The average amount of L-DOPA analyzed in the animals treated by the solvent is considered as the control value (100%). The amounts analyzed in the animals treated by the molecules are then expressed as a percentage relative to this control value.
Statistics The data obtained for the control animals and the treated animals are compared with a variance analysis (ANOVA), followed by a Dunnett test. The significance limit is set at p<0.05. The data are expressed as a mean standard deviation.
Compounds The injection are made subcutaneously in a volume of 1.0 ml/kg. The substances are dissolved in sterile water with, if necessary, a few drops of lactic acid and then readjusted to a pH which is as close as possible to neutrality with sodium hydroxide. […] The doses are expressed relative to their weight of free base.

[4] abbreviates: s.c., 30 minutes after injection, score of 1 or more.
Setting [5] is: s.c., 60 minutes after injection, xylazine 40 mg/kg i.p., score of 2 or less.
[6] abbreviates: 30 minutes after xylazine 40 mg/kg i.p., distilled water pretreatment, N=10.

We go through 7 compounds from patent US5486532A, “Benzospiroalkenes” (Adir et Compagnie, priority 1993, dated 1996).

Molecules are shown by their SMILES. Where a name gives a salt, the structure may show the parent alone. Read-outs that look alike come from different tables or passages of the source. Some results are limits rather than exact numbers.

Broadly, the ED50 is the midpoint of the dose-response relation. With `NC1=NC2(CCc3cccc(Cl)c3C2)CO1` (single isomer, unassigned) [Example 13, Spiro[(1-oxa-2-amino-3-azacyclopent-2-ene)-4:2'-(8'-chloro-1',2', 3',4'-tetrahydronaphthalene)]hydrochloride, βisomer], the ED50 in assay [1] (setting [4]) was 0.15 mg/kg; in assay [2] (setting [5]), above 0.63 mg/kg. The “induction of a loss of the reorienting reflex (in words)” value (“induction of a loss … (in words)” for short) in assay [1] is recorded as “behave as agonists by inducing a loss of the reorienting reflex”.

The term EC50 denotes the midpoint of the concentration-response curve. On to `COc1cccc2c1CC1(CC2)CNC=N1` (stereo not shown) [Example 3, Spiro[(1,3-diazacyclopent-1-ene)-5:2'-(8'-methoxy-1',2',3', 4'-tetrahydronaphthalene)]fumarate], for which the EC50 with dog femoral arteries (dog femoral artery rings, cumulative doses) stood at 3000 nM; in the assay on saphena veins (dog saphena vein rings, cumulative doses) it was 400 nM. Besides, the Emax with dog femoral arteries (maximum contraction relative to 100 mM KCl, dog femoral artery, read-out: ARTERY Max) stood at 94%; in the assay with saphena veins (maximum contraction relative to 100 mM KCl, dog saphena vein, read-out: VEIN Max), 100%.

Take `NC1=NC2(CCc3cccc(Cl)c3C2)CO1` (stereo not shown) [Example 9, Spiro[(1-oxa-2-amino-3-azacyclopent-2-ene)-4:2'-(8'-chloro-1', 2',3',4'-tetrahydronaphthalene)]hydrochloride]: the “Accumulation of L-DOPA” value was determined as 51 ± 7 Control percentages in assay [3] (dose 0.01 mg/kg s.c.), 50 ± 7 Control percentages in assay [3] (dose 0.04 mg/kg s.c.), 44 ± 2 Control percentages in assay [3] (dose 0.16 mg/kg s.c.) and 34 ± 2 Control percentages in assay [3] (dose 0.63 mg/kg s.c.). Besides, the ED50 in assay [1] (setting [4]) was 0.17 mg/kg; in assay [2] (setting [5]), above 0.63 mg/kg. Further, the “induction of a loss … (in words)” value in assay [1] is on record as “behave as agonists by inducing a loss of the reorienting reflex”.

In the case of `Cc1ccc2c(c1C)CC1(CC2)COC(N)=N1` (stereo not shown) [Example 11, Spiro[(1-oxa-2-amino-3-azacyciopent-2-ene)-4:2'-(7-8'-dimethyl-1', 2',3',4'-tetrahydronaphthalene)]hydrochloride], the ED50 is 1.14 mg/kg in assay [1] (setting [4]) and above 2.5 mg/kg in assay [2] (setting [5]). In addition, the “induction of a loss … (in words)” value in assay [1] is reported as “behave as agonists by inducing a loss of the reorienting reflex”.

As for `c1ccc2c(c1)OCC(C1=NCCN1)O2` (stereo not shown) [IDAZOXAN, idazoxan], the ED50 in assay [1] (setting [4]) was above 10 mg/kg; in assay [2] (setting [5]) it was 0.24 mg/kg. For the same compound, the “induction of a loss … (in words)” value in assay [1] is on record as “inactiv”.

For `Brc1c(NC2=NCCN2)ccc2nccnc12` [UK 14,304, reference compound], the “Accumulation of L-DOPA” value stood at 98 ± 13 Control percentages in assay [3] (dose 0.01 mg/kg s.c.), 70 ± 2 Control percentages in assay [3] (dose 0.04 mg/kg s.c.), 40 ± 3 Control percentages in assay [3] (dose 0.16 mg/kg s.c.) and 48 ± 7 Control percentages in assay [3] (dose 0.63 mg/kg s.c.). For the same compound, the results for the ED50 in assay [1] and in assay [2] were 0.24 mg/kg and above 10 mg/kg, respectively. Moreover, the “induction of a loss … (in words)” value in assay [1] is on record as “behave as agonists by inducing a loss of the reorienting reflex”.

`Cc1cccc(C)c1N=C1NCCCS1` [XYLAZINE, xylazine]: in assay [1] (setting [6]), the “control rats that had lost the righting reflex (in words)” value is on record as “all the control rats (N=10) had lost the fighting reflex” and the “righting reflex score, mean±SD” value turned out to be 3±0. Moreover, in assay [1], the ED50 was 6.1 mg/kg and the “induction of a loss … (in words)” value was “behave as agonists by inducing a loss of the reorienting reflex”.
